According to US12172983B2, “EGFR inhibitors” (Blueprint Medicines Corporation, priority 2019, dated 2024):
Where two headings read alike, the source gives them in different places.

How the values were obtained:
EGFR (L858R T790M C797S) = target: T1, EGFR (L858R T790M C797S) (Homo sapiens, UniProt P00533, C797S/L858R/T790M); experiment: Biochemical EGFR inhibition assay (Caliper mobility shift), EGFR LRTMCS mutant; conditions: inhibitory activity against EGFR LRTMCS mutant; apparent IC50; read-out: Ext Enz LRTMCS
T1 construct: purchased SignalChem E10-122VG
T1 sequence (P00533 25-1210 T790M/C797S/L858R): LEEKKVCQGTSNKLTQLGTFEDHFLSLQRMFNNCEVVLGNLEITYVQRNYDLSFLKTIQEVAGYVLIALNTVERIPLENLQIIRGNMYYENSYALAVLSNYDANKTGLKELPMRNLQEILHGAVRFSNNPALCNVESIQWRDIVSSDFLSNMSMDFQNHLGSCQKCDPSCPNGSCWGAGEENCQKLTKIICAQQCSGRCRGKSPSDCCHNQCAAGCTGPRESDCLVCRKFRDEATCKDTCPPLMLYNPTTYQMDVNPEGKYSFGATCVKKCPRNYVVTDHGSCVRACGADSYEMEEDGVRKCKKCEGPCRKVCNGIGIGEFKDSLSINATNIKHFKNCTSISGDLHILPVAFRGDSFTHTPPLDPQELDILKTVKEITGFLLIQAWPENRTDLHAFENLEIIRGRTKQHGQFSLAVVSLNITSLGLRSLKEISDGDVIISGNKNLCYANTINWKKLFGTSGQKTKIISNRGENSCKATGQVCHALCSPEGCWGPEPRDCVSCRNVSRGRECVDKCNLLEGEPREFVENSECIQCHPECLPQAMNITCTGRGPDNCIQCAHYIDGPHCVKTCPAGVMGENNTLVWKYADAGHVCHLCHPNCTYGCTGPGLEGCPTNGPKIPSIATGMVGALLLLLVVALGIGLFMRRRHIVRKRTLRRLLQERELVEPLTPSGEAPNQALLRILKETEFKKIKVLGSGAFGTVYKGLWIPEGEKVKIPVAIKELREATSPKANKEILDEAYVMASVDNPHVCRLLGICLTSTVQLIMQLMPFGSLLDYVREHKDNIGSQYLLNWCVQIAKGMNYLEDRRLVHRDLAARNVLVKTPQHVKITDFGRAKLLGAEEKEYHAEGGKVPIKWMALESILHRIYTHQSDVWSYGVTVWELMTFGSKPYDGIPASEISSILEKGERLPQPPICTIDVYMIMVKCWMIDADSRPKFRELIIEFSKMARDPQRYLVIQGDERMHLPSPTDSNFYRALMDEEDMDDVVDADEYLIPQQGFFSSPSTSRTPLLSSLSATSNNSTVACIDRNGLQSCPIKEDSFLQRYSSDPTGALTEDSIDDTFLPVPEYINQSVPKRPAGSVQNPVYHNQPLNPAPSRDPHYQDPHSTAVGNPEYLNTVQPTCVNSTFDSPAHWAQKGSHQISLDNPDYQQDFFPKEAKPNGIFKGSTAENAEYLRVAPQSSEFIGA
Method in brief: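 Apparent IC50s were derived by plotting percent activity against the log of compound concentration. Activity was measured as phosphopeptide electrophoretically separated from substrate, after reactions at room temperature reached 10% to 20% phosphorylation and were halted with 35 mM EDTA.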

[1] = system: phosphorylation of EGFR (Tyr1068) in NCI-H1975 cell line that harbors the EGFR L858R T790M mutations; experiment: NCI-H1975 pEGFR AlphaLISA assay; assay type: cell-based; conditions: 4-5 hours incubation, read-out: Ext pEGFR H1975
Method in brief: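 Phospho-EGFR Tyr1068 AlphaLISA readout: lysates taken from compound-treated H1975 cells (L858R T790M EGFR) after a 4-5 h exposure at 37 °C. Cells had adhered overnight beforehand. IC50 derived by plotting % pEGFR inhibition against log compound concentration.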

[2] = Homo sapiens, NCI-H1975, inhibition of phosphorylation of mutant EGFR in NCI-H1975 cells
[3] = inhibition of phosphorylation of mutant EGFR in NCI-H1975 cells

Row | SMILES | IC50 (EGFR (L858R T790M C797S)) [µM] | IC50 [1, 2] [µM] | IC50 [1, 3] [µM]
1 | CC(C)c1ccc(N2C[C@H](CS(C)(=O)=O)[C@H]2C)c2cnc(Nc3ccnc(N4CCC(C)(O)CC4)n3)cc12 (single isomer, unassigned) [Compound 46] | ≤ 0.015 | ≤ 0.01 | 
2 | CO[C@@H]1CCN(c2nncc(Nc3cc4c(C(C)C)ccc(N5C[C@H](CS(C)(=O)=O)[C@H]5C)c4cn3)n2)C[C@@H]1F [Compound 134, N-(3-((3S,4R)-3-fluoro-4-methoxypiperidin-1-yl)-1,2,4-triazin-5-yl)-5-isopropyl-8-((2R,3S)-2-methyl-3-(methylsulfonylmethyl)azetidin-1-yl)isoquinolin-3-amine] | ≤ 0.015 | ≤ 0.01 | 
3 | C[C@H](CO)c1ccc(N2C[C@@H](CS(C)(=O)=O)[C@@H]2C)c2cnc(Nc3ccnc(N4CC[C@@H](O)[C@@](C)(F)C4)n3)cc12 (single isomer, unassigned) [Compound 196, (3S,4R)-3-fluoro-1-[4-({5-[(2S)-1-hydroxypropan-2-yl]-8-[(2S,3R)-3-(methanesulfonylmethyl)-2-methylazetidin-1-yl]isoquinolin-3-yl}amino)pyrimidin-2-yl]-3-methylpiperidin-4-ol or (3S,4R)-3-fluoro-1-[4-({5-[(2R)-1-hydroxypropan-2-yl]-8-[(2S,3R)-3-(methanesulfonylmethyl)-2-methylazetidin-1-yl]isoquinolin-3-yl}amino)pyrimidin-2-yl]-3-methylpiperidin-4-ol] | ≤ 0.015 | 0.0101 to 0.02 | 
4 | CCS(=O)(=O)CC1CN(c2ccc(C(C)C)c3cc(Nc4ccnc(N5CC[C@@](C)(O)[C@@H](F)C5)n4)ncc23)C1 [Compound 276, (3S,4R)-1-{4-[(8-{3-[(ethanesulfonyl)methyl]azetidin-1-yl}-5-(propan-2-yl)isoquinolin-3-yl)amino]pyrimidin-2-yl}-3-fluoro-4-methylpiperidin-4-ol] | ≤ 0.015 | ≤ 0.01 | 
5 | CO[C@@H]1[C@H](O)CN(c2nccc(Nc3cc4c(C(C)C)ccc(N5CC(CS(C)(=O)=O)C5)c4cn3)n2)C[C@@H]1F (single isomer, unassigned) [Compound 148, (3R,4R,5S)-5-fluoro-1-[4-({8-[3-(methanesulfonylmethyl)azetidin-1-yl]-5-(propan-2-yl)isoquinolin-3-yl}amino)pyrimidin-2-yl]-4-methoxypiperidin-3-ol or (3S,4S,5R)-5-fluoro-1-[4-({8-[3-(methanesulfonylmethyl)azetidin-1-yl]-5-(propan-2-yl)isoquinolin-3-yl}amino)pyrimidin-2-yl]-4-methoxypiperidin-3-ol] | ≤ 0.015 | ≤ 0.01 | 
6 | CO[C@@H]1[C@H](F)CN(c2nccc(Nc3cc4c(C(C)C)ccc(N5CC(CS(C)(=O)=O)C5)c4cn3)n2)C[C@@H]1OC (stereo in doubt) [Compound 201] | 0.0201 to 0.03 | ≤ 0.01 | 
7 | CC(C)c1ccc(N2C[C@H](CS(C)(=O)=O)[C@H]2C)c2cnc(Nc3ccnc(N4CC[C@@H](OCCN)[C@@](C)(F)C4)n3)cc12 [Compound 241, N-{2-[(3S,4R)-4-(2-aminoethoxy)-3-fluoro-3-methylpiperidin-1-yl]pyrimidin-4-yl}-8-[(2R,3S)-3-(methanesulfonylmethyl)-2-methylazetidin-1-yl]-5-(propan-2-yl)isoquinolin-3-amine] | ≤ 0.015 | 0.0101 to 0.02 | 
8 | CC(C)c1ccc(N2CC(CS(C)(=O)=O)C2)c2cnc(Nc3ccnc(N4CCOCC4)n3)cc12 [Compound 1, 8-[3-(methanesulfonylmethyl)azetidin-1-yl]-N-[2-(morpholin-4-yl)pyrimidin-4-yl]-5-(propan-2-yl)isoquinolin-3-amine] | 0.0151 to 0.02 | 0.0301 to 0.05 | 
9 | CNCCO[C@@H]1CCN(c2nccc(Nc3cc4c(C(C)C)ccc(N5C[C@H](CS(C)(=O)=O)[C@H]5C)c4cn3)n2)CC1(F)F (single isomer, unassigned) [Compound 301, N-{2-[(4S)-3,3-difluoro-4-[2-(methylamino)ethoxy]piperidin-1-yl]pyrimidin-4-yl}-8-[(2R,3S)-3-(methanesulfonylmethyl)-2-methylazetidin-1-yl]-5-(propan-2-yl)isoquinolin-3-amine or N-{2-[(4R)-3,3-difluoro-4-[2-(methylamino)ethoxy]piperidin-1-yl]pyrimidin-4-yl}-8-[(2R,3S)-3-(methanesulfonylmethyl)-2-methylazetidin-1-yl]-5-(propan-2-yl)isoquinolin-3-amine] | ≤ 0.015 |  | ≤ 0.01
10 | CO[C@H]1CCN(c2nccc(Nc3cc4c(C(C)C)cnc(N5C[C@H](CS(C)(=O)=O)[C@H]5C)c4cn3)n2)C[C@H]1F [Compound 131, N-{2-[(3R,4S)-3-fluoro-4-methoxypiperidin-1-yl]pyrimidin-4-yl}-8-[(2R,3S)-3-(methanesulfonylmethyl)-2-methylazetidin-1-yl]-5-(propan-2-yl)-2,7-naphthyridin-3-amine] | ≤ 0.015 | ≤ 0.01 | 
11 | CO[C@@H]1CCN(c2nncc(Nc3cc4c(C(C)C)ccc(N5CC(CS(C)(=O)=O)C5)c4cn3)n2)C[C@@H]1F [Compound 75, N-{3-[(3S,4R)-3-fluoro-4-methoxypiperidin-1-yl]-1,2,4-triazin-5-yl}-8-[3-(methanesulfonylmethyl)azetidin-1-yl]-5-(propan-2-yl)isoquinolin-3-amine] | ≤ 0.015 | ≤ 0.01 | 
12 | CC(C)c1ccc(N2C[C@H](CS(C)(=O)=O)[C@H]2C)c2cnc(Nc3cnnc(N4CC[C@](C)(O)[C@H](F)C4)n3)cc12 (single isomer, unassigned) [Compound 141] | ≤ 0.015 | 0.0101 to 0.02 | 
13 | CC(C)c1ccc(N2CC(CS(C)(=O)=O)C2)c2cnc(Nc3ccnc(N4CC[C@@H](OCCO)[C@@H](F)C4)n3)cc12 [Compound 205, 2-{[(3S,4R)-3-fluoro-1-[4-({8-[3-(methanesulfonylmethyl)azetidin-1-yl]-5-(propan-2-yl)isoquinolin-3-yl}amino)pyrimidin-2-yl]piperidin-4-yl]oxy}ethan-1-ol] | ≤ 0.015 | ≤ 0.01 | 
14 | CO[C@H]1CCN(c2nccc(Nc3cc4c(C(C)C)ccc(N5C[C@H](CS(C)(=O)=O)[C@H]5C)c4cn3)n2)C[C@@H]1N (single isomer, unassigned) [Compound 89] | ≤ 0.015 | ≤ 0.01 | 
15 | CC(C)c1cnc(N2CC(CS(=O)(=O)C(F)(F)F)C2)c2cnc(Nc3ccnc(N4CC[C@@H](O)[C@@](C)(F)C4)n3)cc12 (single isomer, unassigned) [Compound 237] | 0.0301 to 0.1 | 0.0201 to 0.03 | 
16 | CC(C)c1cnc(N2CC(CS(C)(=O)=O)C2)c2cnc(Nc3ccnc(N4C[C@H](F)[C@@H](F)C4)n3)cc12 (single isomer, unassigned) [Compound 9, N-{2-[(3R,4R)-3,4-difluoropyrrolidin-1-yl]pyrimidin-4-yl}-8-[3-(methanesulfonylmethyl)azetidin-1-yl]-5-(propan-2-yl)-2,7-naphthyridin-3-amine or N-{2-[(3S,4S)-3,4-difluoropyrrolidin-1-yl]pyrimidin-4-yl}-8-[3-(methanesulfonylmethyl)azetidin-1-yl]-5-(propan-2-yl)-2,7-naphthyridin-3-amine] | ≤ 0.015 |  | 0.0101 to 0.02
17 | COc1ccc(N2CC(CS(C)(=O)=O)C2)c2cnc(Nc3ccnc(N4CC[C@@H](O)[C@@](C)(F)C4)n3)cc12 (single isomer, unassigned) [Compound 32] | ≤ 0.015 | 0.0201 to 0.03 | 
18 | [2H]C([2H])([2H])OC1CCN(c2nccc(Nc3cc4c(C(C)C)ccc(N5C[C@H](CS(C)(=O)=O)[C@H]5C)c4cn3)n2)CC1 [Compound 263, 8-[(2R,3S)-3-(methanesulfonylmethyl)-2-methylazetidin-1-yl]-N-{2-[4-(^2H3)methoxypiperidin-1-yl]pyrimidin-4-yl}-5-(propan-2-yl)isoquinolin-3-amine] | 0.0151 to 0.02 | 0.0101 to 0.02 | 
19 | CN(C)CCS(=O)(=O)CC1CN(c2cccc3cc(Nc4ccnc(N5C[C@@H](F)[C@@H](O)C(C)(C)C5)n4)ncc23)C1 (single isomer, unassigned) [Compound 192, (4S,5R)-1-(4-{[8-(3-{[2-(dimethylamino)ethanesulfonyl]methyl}azetidin-1-yl)isoquinolin-3-yl]amino}pyrimidin-2-yl)-5-fluoro-3,3-dimethylpiperidin-4-ol or (4R,5S)-1-(4-{[8-(3-{[2-(dimethylamino)ethanesulfonyl]methyl}azetidin-1-yl)isoquinolin-3-yl]amino}pyrimidin-2-yl)-5-fluoro-3,3-dimethylpiperidin-4-ol] | ≤ 0.015 | 0.0101 to 0.02 | 
20 | CO[C@H]1CCN(c2nccc(Nc3cc4c(C(C)C)cnc(N5C[C@H](CS(C)(=O)=O)[C@H]5C)c4cn3)n2)C[C@@H]1O (single isomer, unassigned) [Compound 106, (3S,4S)-1-[4-({8-[(2R,3S)-3-(methanesulfonylmethyl)-2-methylazetidin-1-yl]-5-(propan-2-yl)-2,7-naphthyridin-3-yl}amino)pyrimidin-2-yl]-4-methoxypiperidin-3-ol or (3R,4R)-1-[4-({8-[(2R,3S)-3-(methanesulfonylmethyl)-2-methylazetidin-1-yl]-5-(propan-2-yl)-2,7-naphthyridin-3-yl}amino)pyrimidin-2-yl]-4-methoxypiperidin-3-ol] | ≤ 0.015 | ≤ 0.01 | 
